Results: patent publication US20120076899A1, “SHELF STABLE MONATIN SWEETENED BEVERAGE” (Cargill, Incorporated, priority 2009, published 2012)

Columns and labels:
[1] = Total indole concentrations following sunlight exposure; assay type: physicochemical
Method: Synthetic R,R-monatin containing approximately 95.4% R,R-monatin monopotassium salt (dry basis) was obtained from CSIR (Modderfontein, South Africa). About 39 mg/L of this monatin was placed in a buffered solution at a pH of about 2.8-3.0 comprising 9 mM citric acid-trisodium citrate in high purity water and preserved with about 150 mg/L sodium benzoate. To some samples 200 ppm SANMELIN™ AO-3000 enzymatically modified isoquercitrin (EMIQ) (San-Ei Gen F.F.I.—Osaka, Japan) was added. Dissolved O2 levels were either increased by bubbling compressed air or reduced by bubbling N2 (99.9% purity) through these samples until the target O2 concentrations were achieved. Dissolved O2 levels were determined at 20° C. using a FOXY fluorescence quenching O2 analyzer from Ocean Optics (Dunedin, Fla.). Samples were stored in clear, glass ampules (˜10 mL) after O2 adjustment and heat-sealed to create an air-tight enclosure. The samples were then either stored in the dark, or exposed to sunlight. The exposure to sunlight is a much harsher environment for photosensitive compounds than the fluorescent light box because sunlight is many times brighter (˜100,000 Lux vs. ˜2200 Lux) and produces higher-energy, UV radiation. In order to test samples under these alternate conditions, samples were stored outside and exposed to sunlight where temperatures varied from about 5 to about 30 degrees C. and light intensity ranged from 0 at night to about 100,000 Lux on a clear day. Duplicate samples were analyzed weekly for total indole concentrations via the following method.
(§1) Total indole (monatin and its intramolecular rearrangement products, monatin lactone and monatin lactam) concentrations were quantified by reversed phase HPLC at 40° C. using an Agilent Zorbax Eclipse C18 column with UV detection at 280 nm by PDA. The compounds were eluted by a gradient mobile phase consisting of (A) 1:1 methanol and acetonitrile (v:v) with 0.3% formic acid and 10 mM ammonium formate and (B) 0.3% formic acid in water with 10 mM ammonium formate. The integrated peak areas for the three (3) compounds were expressed in terms of monatin concentration (mg/L) based on a standard curve prepared for monatin. Thus, the extinction coefficient for monatin was applied to estimate concentrations of monatin lactone and monatin lactam since standards for these compounds were unavailable.

[2] = Total indole concentrations over range of dissolved oxygen concentrations (light box storage); assay type: physicochemical; details: continuous light ~2200 lux, 28° C., pH 2.8-3.0
Method: Synthetic R,R-monatin containing approximately 95.4% R,R-monatin monopotassium salt (dry basis) was obtained from CSIR (Modderfontein, South Africa). About 100 mg/L of this monatin was placed in a buffered solution at a pH of about 2.8-3.0 comprising 9 mM citric acid-trisodium citrate in high purity water and preserved with about 150 mg/L sodium benzoate. Dissolved O2 levels were either increased by bubbling compressed air or reduced by bubbling N2 (99.9% purity) through these samples until the target O2 concentrations were achieved. Dissolved O2 levels were determined at 20° C. using a FOXY fluorescence quenching O2 analyzer from Ocean Optics (Dunedin, Fla.). Samples were stored in clear, glass ampules (˜10 mL) after O2 adjustment and heat-sealed to create an air-tight enclosure. The samples were then exposed to light continuously (24 hours per day) in a light box (˜2200 lux light intensity) configured with a rotating carousel to provide even illumination. The source of light was provided by ultra-violet (UV) light wavelength transmitting bulbs and standard fluorescent bulbs. The heat produced by the lights warmed the samples to a temperature of about 28° C. Duplicate samples of each treatment were analyzed weekly for total indole concentrations via the following method.
as §1

## NC(CC(O)(Cc1c[nH]c2ccccc12)C(=O)O)C(=O)O (stereo not drawn) [R,R-monatin, 2-hydroxy-2-(indol-3-ylmethyl)-4-aminoglutaric acid]
[1]; 8.3 mg/L O2, 0 ppm EMIQ, Dark, 0 d
  Total Indole Concentration: 38.5 mg/L
[1]; 8.3 mg/L O2, 0 ppm EMIQ, Dark, 7 d
  Total Indole Concentration: 39.4 mg/L
[1]; 8.3 mg/L O2, 0 ppm EMIQ, Dark, 14 d
  Total Indole Concentration: 38.0 mg/L
[1]; 8.3 mg/L O2, 0 ppm EMIQ, Dark, 21 d
  Total Indole Concentration: 36.9 mg/L
[1]; 8.3 mg/L O2, 0 ppm EMIQ, Dark, 28 d
  Total Indole Concentration: 39.1 mg/L
[1]; 8.3 mg/L O2, 0 ppm EMIQ, Light (sunlight), 0 d
  Total Indole Concentration: 38.5 mg/L
[1]; 8.3 mg/L O2, 0 ppm EMIQ, Light (sunlight), 7 d
  Total Indole Concentration: 0.0 mg/L
[1]; 8.3 mg/L O2, 0 ppm EMIQ, Light (sunlight), 14 d
  Total Indole Concentration: 0.0 mg/L
[1]; 8.3 mg/L O2, 0 ppm EMIQ, Light (sunlight), 21 d
  Total Indole Concentration: 0.0 mg/L
[1]; 8.3 mg/L O2, 0 ppm EMIQ, Light (sunlight), 28 d
  Total Indole Concentration: 0.0 mg/L
[1]; <0.5 mg/L O2, 0 ppm EMIQ, Light (sunlight), 0 d
  Total Indole Concentration: 38.5 mg/L
[1]; <0.5 mg/L O2, 0 ppm EMIQ, Light (sunlight), 7 d
  Total Indole Concentration: 39.7 mg/L
[1]; <0.5 mg/L O2, 0 ppm EMIQ, Light (sunlight), 14 d
  Total Indole Concentration: 34.4 mg/L
[1]; <0.5 mg/L O2, 0 ppm EMIQ, Light (sunlight), 21 d
  Total Indole Concentration: 32.0 mg/L
[1]; <0.5 mg/L O2, 0 ppm EMIQ, Light (sunlight), 28 d
  Total Indole Concentration: 30.6 mg/L
[1]; <0.5 mg/L O2, 200 ppm EMIQ, Light (sunlight), 0 d
  Total Indole Concentration: 38.5 mg/L
[1]; <0.5 mg/L O2, 200 ppm EMIQ, Light (sunlight), 7 d
  Total Indole Concentration: 36.0 mg/L
[1]; <0.5 mg/L O2, 200 ppm EMIQ, Light (sunlight), 14 d
  Total Indole Concentration: 38.4 mg/L
[1]; <0.5 mg/L O2, 200 ppm EMIQ, Light (sunlight), 21 d
  Total Indole Concentration: 32.8 mg/L
[1]; <0.5 mg/L O2, 200 ppm EMIQ, Light (sunlight), 28 d
  Total Indole Concentration: 36.7 mg/L
[2]; 0.4 mg/L O2, 0 Days
  Total Indole Concentration: 104.0 mg/L
[2]; 0.4 mg/L O2, 7 Days
  Total Indole Concentration: 98.7 mg/L
[2]; 0.4 mg/L O2, 14 Days
  Total Indole Concentration: 102.9 mg/L
[2]; 0.4 mg/L O2, 21 Days
  Total Indole Concentration: 97.5 mg/L
[2]; 0.4 mg/L O2, 28 Days
  Total Indole Concentration: 96.2 mg/L
[2]; 1.5 mg/L O2, 0 Days
  Total Indole Concentration: 104.0 mg/L
[2]; 1.5 mg/L O2, 7 Days
  Total Indole Concentration: 97.1 mg/L
[2]; 1.5 mg/L O2, 14 Days
  Total Indole Concentration: 90.6 mg/L
[2]; 1.5 mg/L O2, 21 Days
  Total Indole Concentration: 93.3 mg/L
[2]; 1.5 mg/L O2, 28 Days
  Total Indole Concentration: 76.0 mg/L
[2]; 4.0 mg/L O2, 0 Days
  Total Indole Concentration: 104.0 mg/L
[2]; 4.0 mg/L O2, 7 Days
  Total Indole Concentration: 94.6 mg/L
[2]; 4.0 mg/L O2, 14 Days
  Total Indole Concentration: 71.3 mg/L
[2]; 4.0 mg/L O2, 21 Days
  Total Indole Concentration: 58.0 mg/L
[2]; 4.0 mg/L O2, 28 Days
  Total Indole Concentration: 14.6 mg/L
[2]; 6.5 mg/L O2, 0 Days
  Total Indole Concentration: 104.0 mg/L
[2]; 6.5 mg/L O2, 7 Days
  Total Indole Concentration: 97.0 mg/L
[2]; 6.5 mg/L O2, 14 Days
  Total Indole Concentration: 75.7 mg/L
[2]; 6.5 mg/L O2, 21 Days
  Total Indole Concentration: 54.7 mg/L
[2]; 6.5 mg/L O2, 28 Days
  Total Indole Concentration: 0.0 mg/L
[2]; 8.3 mg/L O2, 0 Days
  Total Indole Concentration: 104.0 mg/L
[2]; 8.3 mg/L O2, 7 Days
  Total Indole Concentration: 89.6 mg/L
[2]; 8.3 mg/L O2, 14 Days
  Total Indole Concentration: 49.9 mg/L
[2]; 8.3 mg/L O2, 21 Days
  Total Indole Concentration: 21.3 mg/L
[2]; 8.3 mg/L O2, 28 Days
  Total Indole Concentration: 0.0 mg/L
